# Measurements reported in patent US20070099879A1 (priority 2005, published 2007).
# Entries after “also recorded” stand apart in the source; their conditions may differ.
# Assays:
# [1] = Toxic effect assessment: body weight of mice during OIR; details: mouse, in vivo
# Source text: In the OIR studies, all pups had similar body weight prior to initiation of the experiment (P12) and after exposure to high oxygen (P17).
# retinal EC [2] = assay: Retinal EC transwell migration assay; type: cell-based, mouse; details: 10 μM calcitriol, 3 h
# Method: Retinal EC migration was determined using both wound migration and transwell assays. […] Wound closure was monitored by phase microscopy, and digital images were obtained at different time points used for quantitative assessment of migration. For transwell migration, wells (8 μm pore size, 6.5 mm membrane; Costar) were coated with Matrigel™ (200 μg/ml) or fibronectin (2 μg/ml) in PBS on the bottom side at 4° C. overnight. The next day, inserts were rinsed with PBS, blocked in PBS containing 2% BSA for 1 h at room temperature, and washed with PBS. Cells were removed by trypsin-EDTA, counted, and resuspended at 1×10^6 cells/ml in serum-free medium. Inserts were placed in 24-well dishes (Costar) containing 0.5 ml of serum-free medium and 0. 1 ml of cell suspension was then added to the top of the insert. […] The inserts were then mounted on a slide cell side up, and the number of cells which migrated to the bottom of the filter was determined by counting 10 high power fields at X200 magnification.
# FIG. 5C illustrate is a quantification of the transwell assay as described above. […] Cells were removed by trypsin-EDTA, counted, and resuspended at 1×10^6 cells/ml in serum-free medium. […] The inserts were then mounted on a slide cell side up and the number of cells which migrated to the bottom of the filter was determined by counting 10 high power fields at ×200 magnification. […]
# [3] = tested on: retinal endothelial cells; assay: Retinal endothelial cell proliferation assay (CellTiter 96 AQueous); type: cell-based, mouse; details: for Relative Survival: relative to solvent control
# Method: Primary mouse retinal endothelial cell (REC) cultures were prepared and maintained as described previously (Su X, et al., Isolation and characterization of murine retinal endothelial cells. Mol Vision. 2003;9:171-178). Briefly, REC were isolated from wild type or transgenic-immortomouse by collagenase digestion of retina and affinity purification using magnetic beads coated with platelet/endothelial cell adhesion molecule-1 (anti-PECAM-1). The bound cells were plated on fibronectin-coated wells and expanded. The REC were characterized for expression and localization of endothelial cell markers by fluorescence-activated cell sorting (FACS) analysis and indirect immuno fluorescence staining. The ability of these cells to form capillary like networks was assessed on matrigel™. For cell proliferation assays, retinal endothelial cell (10,000) were plated in triplicate in 96-well plates and incubated overnight. […] The degree of proliferation was assessed using the nonradioactive cell proliferation assay (CellTiter 96® AQueous; Promega, Madison, Wis.) as recommended by the supplier.
# retinal EC [4] = assay: Retinal EC wound migration assay; type: cell-based, mouse; details: 10 μM calcitriol, 0, 24 and 48 hours
# Method: Retinal EC migration was determined using both wound migration and transwell assays. […] Wound closure was monitored by phase microscopy, and digital images were obtained at different time points used for quantitative assessment of migration. For transwell migration, wells (8 μm pore size, 6.5 mm membrane; Costar) were coated with Matrigel™ (200 μg/ml) or fibronectin (2 μg/ml) in PBS on the bottom side at 4° C. overnight. The next day, inserts were rinsed with PBS, blocked in PBS containing 2% BSA for 1 h at room temperature, and washed with PBS. Cells were removed by trypsin-EDTA, counted, and resuspended at 1×10^6 cells/ml in serum-free medium. Inserts were placed in 24-well dishes (Costar) containing 0.5 ml of serum-free medium and 0. 1 ml of cell suspension was then added to the top of the insert. Cells were allowed to migrate through the filter for 3 h in a tissue culture incubator. After incubation, the cells on the top of the filter were scraped off using a cotton swab; the membrane was then fixed in 4% paraformaldehyde and stained with hematoxylin and eosin. The inserts were then mounted on a slide cell side up, and the number of cells which migrated to the bottom of the filter was determined by counting 10 high power fields at X200 magnification.
# VEGF = assay: Western blot of VEGF in whole eye extracts of P15 mice during OIR; type: in vivo, mouse
# Method: Vascular endothelial growth factor (VEGF) levels were determined by Western blotting of whole eye extracts prepared from P15 mice during OIR (5 days of hyperoxia and 3 days of normoxia) when maximum levels of VEGF were expressed (Wang S, et al. Attenuation of Retinal Vascular Development and Neovascularization during Oxygen-Induced Ischemic Retinopathy in Bcl-2 -/- Mice. Developmental Biol. 2005;279:205-219). Mice were euthanized by CO2 inhalation, then eyes from 2 or 3 mice dissected, homogenized in 0.2 ml of RIPA buffer, 10 mM HEPES pH 7.6, 142.5 mM KCl, 1% NP-40, and protease inhibitor cocktail, (Roche Applied Science, Indianapolis, Ind.), sonicated briefly, and incubated at 4° C. for 20 min. […] Supernatants were transferred to a clean tube, and protein concentrations were determined using the DC Protein Assay (Bio-Rad Laboratories, Hercules, Calif., Cat. No. 500-011 1). Approximately 20 μg of protein from the centrifuged homogenates were analyzed by SDS-PAGE (4-20% Tris-Glycin gel, Invitrogen, Carlsbad, Calif.) under reducing conditions and transferred to a nitrocellulose membrane. […] For quantitative assessments, the band intensities relative to loading controls were determined by scanning the blots using the Molecular Dynamics Storm 860 Scanner and Image Quant Software (Amersham Biosciences, Piscataway, N.J.).
# retinoblastoma = details: 0.05 μg/d, mice; cited from earlier work
# [5] = tested on: retinal endothelial cells; assay: Retinal endothelial cell capillary morphogenesis in Matrigel; type: cell-based, mouse; details: 10 μM calcitriol, 18 h
# Method: The ability of the cultured retinal endothelial cells to form capillary like networks was assessed on Matrigel™ (B D Biosciences, San Jose, Calif.). The capillary morphogenesis assays in Matrigel™ were performed as previously described (Su X, et al., Isolation and characterization of murine retinal endothelial cells. Mol Vision. 2003;9:171-178; Rothermel T A, et al., Polyoma virus middle-T-transformed PECAM-1 deficient mouse brain endothelial cells proliferate rapidly in culture and form hemangiomas in mice. J Cell Physiol. 2005;202:230-239). Briefly, 0.5 ml of Matrigel™ was added to a cold 35 mm tissue culture plate and incubated at 37° C. for at least 30 min to allow the Matrigel™ to harden. […] Cultures were monitored for 6-48 h, and images were captured in digital format after 18 h when maximum organization was observed. […] The capillary network formed by control cells began to fall apart at 24-48 h.
# [6] = tested on: retinal neovascularization; assay: Mouse oxygen-induced ischemic retinopathy (OIR) model, retinal neovascularization; type: in vivo; details: for inhibition of neovascularization: P17 mice
# Method: All experimental procedures involving animals were performed according to the ARVO Statement for the Use of Animals in Ophthalmic and Vision Research. […] In this model, 7-day-old (P7) pups (8-10 pups) and their mother were placed in an airtight incubator and exposed to an atmosphere of 75±0.5% oxygen (hyperoxia) for 5 days. Incubator temperature was maintained at 23±2° C., and oxygen was continuously monitored with a PROOX model 110 oxygen controller (Reming Bioinstruments Co., Redfield, N.Y.). Mice were then brought to room air for 5 days. Maximum retinal neovascularization occurred from P12 to P17. […] The other half of the littermates was injected with 0.1 ml of mineral oil. Generally one eye from each mouse was used for histochemical analysis and the other eye for histological evaluation as outlined below. These experiments were repeated at least 3 times for each dose.
# Briefly, P17 mouse eyes were enucleated and briefly fixed in 4% paraformaldehyde in phosphate buffered saline (PBS) (10 min on ice). The paraformaldehyde fixed eyes were then fixed in 70% ethanol for at least 24 h at −20° C. Retinas were dissected in PBS and then washed with PBS 3 times, 10 min each. Following incubation in blocking buffer (50% fetal calf serum, 20% normal goat serum (NGS) in PBS) for 2h, the retinas were incubated with rabbit anti-mouse collagen IV (Chemicon, diluted 1:500 in PBS containing 20% fetal calf serum, 20% normal goat serum) at 4° C. overnight. Retinas were then washed 3 times with PBS, 10 min each, incubated with a secondary antibody Alexa 594-labeled goat-anti-rabbit (Invitrogen, Carlsbad, Calif.), at 1:500 dilution prepared in PBS containing 20% FCS, 20% NGS for 2 h at room temperature, washed 4 times with PBS (30 min each), and mounted on a slide with PBS/glycerol (2vol/1vol). Retinas were viewed by fluorescence microscopy, and images were captured in digital format using a Zeiss microscope (Carl Zeiss, Chester, Va.).
# Quantification of retinal neovascularization on P17 was performed by counting vascular cell nuclei anterior to the […] (Wang S, et al., Attenuation of Retinal Vascular Development and Neovascularization during Oxygen-Induced Ischemic Retinopathy in Bcl-2 -/- Mice. Developmental Biol. 2005;279:205-219). Briefly, mice eyes were enucleated, fixed in formalin for 24 h, and embedded in paraffin. Serial sections (6 μm), each separated by at least 40 μm, were taken from around the region of the optic nerve. The hematoxylin- and PAS-stained sections were examined in masked fashion, by two independent observers without the knowledge of the samples identity, the presence of neovascular tufts projecting into the vitreous from the retina. […]
compound,measurement,setting,value
"C=C1/C(=C\C=C2/CCC[C@]3(C)[C@@H]([C@H](C)CCCC(C)(C)O)CC[C@@H]23)C[C@@H](O)C[C@@H]1O [calcitriol, 1α,25-dihydroxyvitamin D3]",Body Weight,[1],5.04 ± 0.23
same,mortality during OIR experiments,[1],None of the experimental animals died
same,retinal EC migration through filter coated with Matrigel,retinal EC [2],no significant effect
same,retinal EC migration through filters coated with fibronectin,retinal EC [2]; compared to solvent control (not shown),slightly enhanced
same,Relative Survival,"[3]; 0.25 μM calcitriol, 3 days",108%
same,Relative Survival,"[3]; 0.50 μM calcitriol, 3 days",111%
same,Relative Survival,"[3]; 10.00 μM calcitriol, 3 days",111%
same,Relative Survival,"[3]; 50.00 μM calcitriol, 3 days",87%
same,Relative Survival,"[3]; 100.00 μM calcitriol, 3 days",12%
same,inhibition at 100 µM,"[3]; Mus musculus, Endothelial cell, 72 h, read-out: inhibition of retinal endothelial cell proliferation, 100 μM calcitriol, 3 days",90%
same,effect on retinal endothelial cell proliferation,"[3]; calcitriol 0-10 μM, 9 days",no effect; also recorded: minimal effects
same,effect on retinal endothelial cell proliferation,[3]; calcitriol 50 μM and higher,significant inhibition; also recorded: Significant toxicity
same,effect on retinal endothelial cell proliferation,"[3]; calcitriol up to 10 μM, 3 days",No significant inhibition
same,effect on retinal endothelial cell proliferation,"[3]; calcitriol up to 10 μM, 3 days, listed as Calcitriol",no effect
same,retinal EC wound migration vs ethanol control,retinal EC [4],not significant
same,Relative Intensity of Expressed VEGF,"VEGF; 0.025 μg (~5 μg/Kg), n = 3, P15 eye extracts, relative to β-catenin, mean ± SD, control 0.39 ± 0.08",0.37 ± 0.06 (SD)
same,difference in VEGF expression between control and calcitriol-treated eyes,"VEGF; 5 μg/Kg, P15 mice during OIR",no significant difference
same,decrease in retinal involvement of retinoblastoma compared to controls,retinoblastoma,50%
same,capillary morphogenesis in Matrigel,[5],completely inhibited; also recorded: completely abolished
same,capillary morphogenesis in Matrigel,[5]; listed as Calcitriol,no capillaries are observed
same,MEAN NUMBER OF ENDOTHELIAL NUCLEI,"[6]; 0.025 μg (~5 μg/Kg), n = 4, mean ± SD, P17, control 39.9 ± 6.4, P < 0.001",3.8 ± 2.2 (SD)
same,inhibition of neovascularization,"[6]; 0.5 μg/Kg calcitriol, vs control",60%
same,inhibition of neovascularization,"[6]; 2.5 μg/Kg calcitriol, vs control",75%
same,inhibition of retinal neovascularization,"[6]; 5 μg/Kg (0.025 μg) calcitriol i.p. per day P12 to P17, P17 mice, vs control",greater than 90%
